Laboratory results taken from PubChem BioAssay AID192 (DTP/NCI, 2004).
Several values for one entry are separate records, joined by “and”; a condition that tells them apart may be missing. Identical values can stand only once. Inconclusive results and toxic doses are left out. Rule for the calls: active = survival T/C of 150% or more; inactive = T/C below 125% in these data.

System: BDF1 mice, B16 melanoma ip, median survival T/C
Test: NCI In Vivo Anticancer Drug Screen. Data for tumor model B16 Melanoma (intraperitoneal) in B6D2F1 (BDF1) mice
Conditions: endpoint: median survival time, higher = longer survival
In short: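 Antitumor activity is assessed in mice bearing a transplanted tumor, with survival or tumor size compared against vehicle-dosed controls and expressed as T/C.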

[1] = dose: 50.0 mg/kg/injection, schedule: Q01DX009 (ip), vehicle: Klucel (hydroxypropylcellulose) (HPC)
[2] = dose: 100.0 mg/kg/injection, schedule: Q01DX009 (ip), vehicle: Klucel (hydroxypropylcellulose) (HPC)
[3] = dose: 200.0 mg/kg/injection, schedule: Q01DX009 (ip), vehicle: Klucel (hydroxypropylcellulose) (HPC)
[4] = dose: 6.25 mg/kg/injection, schedule: Q01DX009 (ip), vehicle: Klucel (hydroxypropylcellulose) (HPC)
[5] = dose: 25.0 mg/kg/injection, schedule: Q01DX009 (ip), vehicle: Klucel (hydroxypropylcellulose) (HPC)
[6] = dose: 3.12 mg/kg/injection, schedule: Q01DX009 (ip), vehicle: saline
[7] = dose: 6.25 mg/kg/injection, schedule: Q01DX009 (ip), vehicle: saline
[8] = dose: 12.5 mg/kg/injection, schedule: Q01DX009 (ip), vehicle: saline
[9] = dose: 25.0 mg/kg/injection, schedule: Q01DX009 (ip), vehicle: saline
[10] = dose: 50.0 mg/kg/injection, schedule: Q01DX009 (ip), vehicle: saline
[11] = dose: 100.0 mg/kg/injection, schedule: Q01DX009 (ip), vehicle: saline

Measured: T/C

CC(NC(=O)C(F)(F)F)C(=O)O (stereo not drawn)
inactive: dose: 100.0 mg/kg/injection, schedule: Q04DX003 (ip), vehicle: saline 100 % of control | dose: 200.0 mg/kg/injection, schedule: Q04DX003 (ip), vehicle: saline 86 % of control

O=C(O)/C=C/C(=O)Nc1ccc(N=Nc2ccccc2)cc1
inactive: [1] 104 % of control | [2] 105 % of control | [3] 97 % of control

CC[C@@H]1C[C@@H]2CN3CCc4c([nH]c5ccc(OC)cc45)C(C(=O)OC)(C2)C13
inactive: [1] 102 % of control | [2] 106 % of control | [3] 111 % of control

CCCCCCCCCCCCCCCCc1ccc(CCCC(=O)O)cc1
inactive: dose: 25.0 mg/kg/injection, schedule: Q01DX009 (ip), vehicle: carboxymethylcellulose (CMC) 101 % of control | dose: 50.0 mg/kg/injection, schedule: Q01DX009 (ip), vehicle: carboxymethylcellulose (CMC) 103 % of control | dose: 100.0 mg/kg/injection, schedule: Q01DX009 (ip), vehicle: carboxymethylcellulose (CMC) 95 % of control

Nc1nc(-c2ccccc2N=NN2CCN(N=Nc3ccccc3-c3nc(N)c4ccccc4n3)CC2)nc2ccccc12
inactive: dose: 3.12 mg/kg/injection, schedule: Q01DX009 (ip), vehicle: Klucel (hydroxypropylcellulose) (HPC) 95 % of control | [4] 92 % of control | dose: 12.5 mg/kg/injection, schedule: Q01DX009 (ip), vehicle: Klucel (hydroxypropylcellulose) (HPC) 107 % of control | [5] 107 % of control | [1] 113 % of control

CC[P+](c1ccccc1)(c1ccccc1)c1ccccc1
inactive: dose: 1.25 mg/kg/injection, schedule: Q04DX003 (ip), vehicle: saline 97 % of control | dose: 2.5 mg/kg/injection, schedule: Q04DX003 (ip), vehicle: saline 93 % of control | dose: 5.0 mg/kg/injection, schedule: Q04DX003 (ip), vehicle: saline 95 % of control

C1=NC(c2ccccn2)=NNC(c2ccccn2)=C1c1ccccc1
inactive: [5] 100 % of control | [1] 101 % of control | [2] 86 % of control

CCOC(=O)C1CCCN(S(=O)(=O)c2ccc(C)cc2)c2ccccc2C1=O (stereo not drawn)
inactive: dose: 100.0 mg/kg/injection, schedule: Q04DX003 (ip), vehicle: Klucel (hydroxypropylcellulose) (HPC) 96 % of control | dose: 200.0 mg/kg/injection, schedule: Q04DX003 (ip), vehicle: Klucel (hydroxypropylcellulose) (HPC) 88 % of control | dose: 400.0 mg/kg/injection, schedule: Q04DX003 (ip), vehicle: Klucel (hydroxypropylcellulose) (HPC) 95 % of control

CNCC(C)CN1CCCCCc2ccccc21 (stereo not drawn)
inactive: [6] 102 % of control | [7] 100 % of control | [8] 95 % of control | [9] 100 % of control | [10] 113 % of control

CN(C)C1CC1c1ccccc1 (stereo not drawn)
inactive: [6] 92 % of control | [7] 107 % of control | [8] 97 % of control | [9] 100 % of control | [10] 105 % of control | [11] 98 % of control

C#CCSC(=S)NNc1ccccc1
inactive: dose: 100.0 mg/kg/injection, schedule: Q01DX009 (ip), vehicle: saline with Tween-80 106 % of control | dose: 200.0 mg/kg/injection, schedule: Q01DX009 (ip), vehicle: saline with Tween-80 112 % of control

Cc1cn(C2CC(O)C(CO)O2)c(=O)[nH]c1=O (stereo not drawn)
inactive: [8] 88 % of control | dose: 32.0 mg/kg/injection, schedule: Q01DX009 (ip), vehicle: saline with Tween-80 111 % of control | dose: 32.0 mg/kg/injection, schedule: Q01DX009 (ip), vehicle: saline 95 % of control and 108 % of control | dose: 50.0 mg/kg/injection, schedule: Q03HX032 (ip), vehicle: saline 105 % of control | dose: 64.0 mg/kg/injection, schedule: Q01DX009 (ip), vehicle: saline with Tween-80 120 % of control | dose: 64.0 mg/kg/injection, schedule: Q01DX009 (ip), vehicle: saline 100 % of control and 101 % of control | [11] 103 % of control | dose: 100.0 mg/kg/injection, schedule: Q03HX032 (ip), vehicle: saline 97 % of control | dose: 128.0 mg/kg/injection, schedule: Q01DX009 (ip), vehicle: saline with Tween-80 120 % of control | dose: 128.0 mg/kg/injection, schedule: Q01DX009 (ip), vehicle: saline 98 % of control and 103 % of control | dose: 150.0 mg/kg/injection, schedule: Q02HX012 (ip), vehicle: saline 103 % of control | dose: 200.0 mg/kg/injection, schedule: Q01DX009 (ip), vehicle: saline 89 % of control | dose: 200.0 mg/kg/injection, schedule: Q02HX012 (ip), vehicle: saline 102 % of control | dose: 200.0 mg/kg/injection, schedule: Q03HX032 (ip), vehicle: saline 89 % of control | dose: 256.0 mg/kg/injection, schedule: Q01DX009 (ip), vehicle: saline with Tween-80 120 % of control | dose: 256.0 mg/kg/injection, schedule: Q01DX009 (ip), vehicle: saline 96 % of control and 102 % of control | dose: 300.0 mg/kg/injection, schedule: Q02HX012 (ip), vehicle: saline 102 % of control | dose: 400.0 mg/kg/injection, schedule: Q02HX012 (ip), vehicle: saline 102 % of control | dose: 400.0 mg/kg/injection, schedule: Q03HX032 (ip), vehicle: saline 92 % of control | dose: 512.0 mg/kg/injection, schedule: Q01DX009 (ip), vehicle: saline with Tween-80 91 % of control | dose: 512.0 mg/kg/injection, schedule: Q01DX009 (ip), vehicle: saline 104 % of control and 107 % of control | dose: 600.0 mg/kg/injection, schedule: Q02HX012 (ip), vehicle: saline 97 % of control

N#Cc1ccc(NC(=O)Nc2nccs2)cc1
inactive: dose: 12.5 mg/kg/injection, schedule: Q01DX009 (ip), vehicle: distilled water + Tween-80 115 % of control

CC(=O)O[C@@H]1[C@@H](O)[C@H]2O[C@@H]3C=C(C)CC[C@]3(CO)[C@]1(C)[C@@]21CO1
inactive: dose: 1.25 mg/kg/injection, schedule: Q01DX009 (ip), vehicle: saline with Tween-80 111 % of control | dose: 2.5 mg/kg/injection, schedule: Q01DX009 (ip), vehicle: saline with Tween-80 103 % of control | dose: 5.0 mg/kg/injection, schedule: Q01DX009 (ip), vehicle: saline with Tween-80 116 % of control | dose: 10.0 mg/kg/injection, schedule: Q01DX009 (ip), vehicle: saline with Tween-80 100 % of control

CC1C[N-]CC(C)C1.CC1C[N-]CC(C)C1.CC1C[N-]CC(C)C1.CC1C[N-]CC(C)C1.[Cl][Rh][Cl] (stereo not drawn)
inactive: dose: 1.5 mg/kg/injection, schedule: Q01DX009 (ip), vehicle: saline with Tween-80 91 % of control | dose: 3.0 mg/kg/injection, schedule: Q01DX009 (ip), vehicle: saline with Tween-80 107 % of control | dose: 3.0 mg/kg/injection, schedule: Q01DX009 (ip), vehicle: saline 116 % of control | dose: 6.0 mg/kg/injection, schedule: Q01DX009 (ip), vehicle: saline with Tween-80 93 % of control | dose: 6.0 mg/kg/injection, schedule: Q01DX009 (ip), vehicle: saline 116 % of control

COc1cc2c(cc1OC)/C(=N/N)CCC2
inactive: dose: 6.25 mg/kg/injection, schedule: Q01DX009 (ip), vehicle: water 99 % of control | dose: 12.5 mg/kg/injection, schedule: Q01DX009 (ip), vehicle: water 92 % of control | dose: 25.0 mg/kg/injection, schedule: Q01DX009 (ip), vehicle: water 93 % of control | dose: 50.0 mg/kg/injection, schedule: Q01DX009 (ip), vehicle: water 97 % of control

COc1cc2c(cc1OC)C1CC(=O)C(CC(C)C)CN1CC2 (stereo not drawn)
inactive: [4] 100 % of control | [5] 100 % of control | [1] 95 % of control | [2] 97 % of control
